Results on 60 compounds are retold here after patent publication US20230109839A1, “THERAPEUTIC AGENT FOR TAUOPATHIES” (SUMITOMO PHARMA CO., LTD., priority 2020, published 2023).

The structures appear in SMILES notation. Where two headings read alike, the source gives them in different places.

The target of the test is T1, human Nav1.1 (Homo sapiens, UniProt P35498).
T1 construct: host or cells: HEK293
Description: Amplification of Nav1.1-derived voltage-gated sodium current (Nav1.1 current), automated patch clamp (Test 1). Format: cell-based. The following applies: for activation at 50 µM: HEK293, Concentration for evaluation 50 μM. Summed up:
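HEK293 cells stably expressing human Nav1.1, restricted to cells with >500 pA current, were recorded by automated voltage-clamp patch clamp with a ramp voltage stimulus. Compounds were applied in HEPES-buffered extracellular solution with 1% DMSO. Amplification (%) = 100×(peak or AUC after/before compound)−100.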

[1] abbreviates: Concentration for evaluation 10 μM, HEK293 cell line stably expressing human Nav1.1.
Where [2] appears, read: Concentration for evaluation 1 μM, HEK293 cell line stably expressing human Nav1.1.
Setting [3] is: Concentration for evaluation 50 μM, HEK293 cell line stably expressing human Nav1.1.
Where [4] appears, read: HEK293, Concentration for evaluation 1 μM, HEK293 cell line stably expressing human Nav1.1, read-out: Nav1.1 current amplification rate (%).
[5] abbreviates: Concentration for evaluation 3 μM, HEK293 cell line stably expressing human Nav1.1.
Setting [6] is: HEK293, concentration for evaluation 1 μM, HEK293 stably expressing human Nav1.1, read-out: Nav1.1 current amplification rate (%).
[7] abbreviates: concentration for evaluation 1 μM, HEK293 stably expressing human Nav1.1.
[8] abbreviates: HEK293 cell line stably expressing human Nav1.1, read-out: Nav1.1 current amplification rate (%).

With `CC1CC=C(c2ccc(=O)n(CC(=O)Nc3ccn4cc(C(F)(F)F)nc4c3)n2)CC1` (racemic) [Example 421], under setting [1], the “Nav1.1 current amplification rate (%)” value turned out to be 199%. For the compound `CC1CC=C(c2ccc(=O)n(CC(=O)N3CCc4c(CNC5CCC5)cccc43)n2)CC1` (stereo not drawn) [Example 315], under setting [2], the “Nav1.1 current amplification rate (%)” value is given as 19%. As to `CC1CCN(c2ccc(=O)n(CC(=O)Nc3cccc(C#N)c3)n2)CC1` [Example 55], under setting [1], the “Nav1.1 current amplification rate (%)” value is listed as 111%. `CN(c1cnc2cnn(CC(=O)Nc3ccn4ccnc4c3)c2n1)C1CCCC1` [Example 670]: the “Nav1.1 current amplification rate (%)” value under setting [2] is listed as 77%.

In the case of `Cc1cccc(F)c1Nc1ncc2cnn(CC(=O)Nc3ccn4ncnc4c3)c2n1` [Example 775], the “Nav1.1 current amplification rate (%)” value under setting [3] is 12%. On to `CN(c1cnc2cnn(CC(=O)Nc3ccc4ncncc4c3)c2n1)C1CC2(CC2)C1` [Example 759], for which the activation at 1 µM under setting [4] came out at 57%. Turning to `COc1cc(=O)n(CC(=O)Nc2ccc3ocnc3c2)nc1C1=CCC(C(F)(F)F)CC1` (racemic) [Example 450], the “Nav1.1 current amplification rate (%)” value under setting [1] worked out at 187%. With `CC1CC(N(C)c2cnc3cnn(CC(=O)Nc4ccn5ncnc5c4)c3n2)C1` (stereo not drawn) [Example 635], under setting [2], the “Nav1.1 current amplification rate (%)” value is on record as 76%. On the same count and under the same terms, the same measure for `CC1CC=C(c2ccc(=O)n(CC(=O)Nc3cnc4c(cnn4C)c3)n2)CC1` (stereo not drawn) [Example 348]: 57%.

With `COc1ncc(-c2cccc3c2CCN3C(=O)Cn2nc(C3=CCC(C)CC3)ccc2=O)cn1` (stereo not drawn) [Example 249], under setting [5], the “Nav1.1 current amplification rate (%)” value is reported as 584%. Regarding `CC1CCC(F)(F)CN1c1ncc2cnn(CC(=O)Nc3ccn4ncnc4c3)c2n1` (stereo not drawn) [Example 793], the “Nav1.1 current amplification rate (%)” value under setting [3] amounted to 55%. Same read-out and setting: the same measure for `Cc1cc2nc(NC(=O)Cn3nc(C4=CCC(C)CC4)ccc3=O)ccn2n1` (stereo not drawn) [Example 340]: 41%. On to `CC1CC=C(c2ccc3cnn(CC(=O)Nc4ccc5ocnc5c4)c3n2)CC1` (stereo not drawn) [Example 883], for which the activation at 1 µM under setting [6] was 164%. Regarding `CC1CC=C(c2ccc(=O)n(CC(=O)N3CCCN(c4cccnc4)CC3)n2)CC1` (stereo not drawn) [Example 384], the “Nav1.1 current amplification rate (%)” value under setting [2] is on record as 15%. On the same count and under the same terms, the same measure for `CC1CC=C(c2ccc(=O)n(CC(=O)N3CCc4c3cccc4C(C)(C)O)n2)CC1` (stereo not drawn) [Example 277]: 210%. `O=C(Cn1ncc2ccc(-c3ccc(F)cc3)nc21)Nc1ccn2ccnc2c1` [Example 866]: the “Nav1.1 current amplification rate (%)” value under setting [7] turned out to be 16%. `CN(c1ncc2cnn(CC(=O)Nc3cnc4cccnc4c3)c2n1)C1CCCC1` [Example 849]: under “HEK293, concentration for evaluation 0.3 μM, HEK293 stably expressing human Nav1.1, read-out: Nav1.1 current amplification rate (%)”, the activation at 0.3 µM was 57%. Regarding `CC1CCN(c2ccc(=O)n(CC(=O)Nc3cc(Cl)c4ocnc4c3)n2)CC1` [Example 94], under setting [1], the “Nav1.1 current amplification rate (%)” value is 198%. Consider `CN(c1cnc2cnn(CC(=O)Nc3ccc4ccncc4c3)c2n1)C1CC1` [Example 732], for which the “Nav1.1 current amplification rate (%)” value under setting [2] came out at 152%. Take `O=C(Cn1ncc2cnc(OCCC3CC3)nc21)Nc1ccn2ncnc2c1` [Example 762, 2-[6-(2-Cyclopropylethoxy)-1H-pyrazolo[3,4-d]pyrimidin-1-yl]-N-([1,2,4]triazolo[1,5-a]pyridin-7-yl)acetamide]: the activation at 50 µM under setting [8] amounted to 37%. Take `CN(c1cnc2cnn(CC(=O)Nc3cnc4cccnc4c3)c2n1)C1CC(C)(C)C1` [Example 755]: the activation at 1 µM under setting [4] came out at 245%. In the case of `COc1nc2cc(NC(=O)Cn3nc(C4=CCC(C)CC4)ccc3=O)ccc2o1` (stereo not drawn) [Example 239], under setting [1], the “Nav1.1 current amplification rate (%)” value came to 310%. For `CC1CCN(c2ccc(=O)n(CC(=O)Nc3ccn4nccc4c3)n2)CC1` [Example 71], the “Nav1.1 current amplification rate (%)” value under setting [1] was 131%. As for `CN(c1cnc2cnn(CC(=O)Nc3ccc4cnccc4c3)c2n1)C1CC1` [Example 706], the “Nav1.1 current amplification rate (%)” value under setting [2] is recorded as 195%. Still for that read-out and setting: the same measure for `CC1CC=C(c2cnc3cnn(CC(=O)Nc4ccc5cncnc5c4)c3n2)CC1` (stereo not drawn) [Example 641]: 361%. On to `CC1CCN(c2ccc3cnn(CC(=O)Nc4ccc5ocnc5c4)c3n2)CC1` [Example 876], for which the “Nav1.1 current amplification rate (%)” value under setting [7] came to 98%. With `CC1CCN(c2ccc(=O)n(CC(=O)Nc3cncc(F)c3)n2)CC1` [Example 65], under setting [1], the “Nav1.1 current amplification rate (%)” value turned out to be 17%.

`CC1CCN(c2ccc(=O)n(CC(=O)Nc3ccc4ncn(C)c4c3)n2)CC1` [Example 85]: the “Nav1.1 current amplification rate (%)” value under setting [1] amounted to 15%. On to `CC1CC=C(c2ccc(=O)n(CC(=O)N3CCN(c4cncc(OC(F)F)c4)CC3)n2)CC1` (stereo not drawn) [Example 405], for which the “Nav1.1 current amplification rate (%)” value under setting [5] worked out at 268%. Turning to `CN(CC1CCC1)c1ccc2cnn(CC(=O)Nc3cnc4cccnc4c3)c2n1` [Example 889], the activation at 1 µM under setting [6] came to 151%. Take `CC1CC=C(c2ccc(=O)n(CC(=O)Nc3ccnc(-c4cnn(C)c4)c3)n2)CC1` (stereo not drawn) [Example 379]: under setting [1], the “Nav1.1 current amplification rate (%)” value came to 147%. As to `CN(c1cnc2cnn(CC(=O)Nc3ccc4cccnc4n3)c2n1)C1CC1` [Example 712], the “Nav1.1 current amplification rate (%)” value under setting [3] is recorded as 78%.

`N#Cc1ccc(NC(=O)Cn2nc(N3CCC4(CCC4)CC3)ccc2=O)cc1` [Example 26]: under setting [1], the “Nav1.1 current amplification rate (%)” value is listed as 364%. The same measure, in the same setting: the same measure for `CC1CC2(C1)CN(c1cnc3cnn(CC(=O)Nc4ccn5ncnc5c4)c3n1)C2` [Example 638]: 58%.

Take `CC1(C)CC=C(c2ccc(=O)n(CC(=O)N3CCc4c(OC5COC5)cccc43)n2)CC1` [Example 436]: under setting [1], the “Nav1.1 current amplification rate (%)” value came out at 226%. With `CC1CC=C(c2ccc(=O)n(CC(=O)N3CCc4c3ccnc4C3=CCN(C)C3)n2)CC1` (stereo not drawn) [Example 283], the “Nav1.1 current amplification rate (%)” value under setting [2] was 15%.

`CC1CCN(c2ccc3cnn(CC(=O)Nc4ccc5nccn5n4)c3n2)CC1` [Example 880]: the “Nav1.1 current amplification rate (%)” value (concentration for evaluation 50 μM, HEK293 stably expressing human Nav1.1) is recorded as 42%. Regarding `CC1CC=C(c2ccc(=O)n(CC(=O)Nc3ccn4cnnc4c3)n2)CC1` (stereo not drawn) [Example 358], the “Nav1.1 current amplification rate (%)” value under setting [2] was determined as 71%. Turning to `CC1CC=C(c2ccc(=O)n(CC(=O)N3CCN(c4nccs4)CC3)n2)CC1` (stereo not drawn) [Example 414], the “Nav1.1 current amplification rate (%)” value under setting [1] was determined as 40%. On to `Cc1cc(NC(=O)Cn2ncc3ncc(N(C)C4CCCC4)nc32)cc2ncnn12` [Example 672], for which, under setting [2], the “Nav1.1 current amplification rate (%)” value amounted to 56%. For `CC1CC=C(c2ccc(=O)n(CC(=O)N3CCN(c4cccnc4)CC3)n2)CC1` (stereo not drawn) [Example 395], under setting [1], the “Nav1.1 current amplification rate (%)” value worked out at 343%. Still for that read-out and setting: the same measure for `COC1CN(c2cccc3c2CCN3C(=O)Cn2nc(C3=CCC(C)(C)CC3)ccc2=O)C1` [Example 434]: 232%; for `Cc1ccc(-c2nn(CC(=O)Nc3ccn4ccnc4c3)c(=O)c(C)c2C)cc1` [Example 156]: 33%; for `O=C(Cn1nc(-c2cc(Cl)cs2)ccc1=O)Nc1ccc2ocnc2c1` [Example 454]: 157%. The same measure, in the same setting: the same measure for `O=C(Cn1nc(C2=CCC(C(F)(F)F)CC2)ccc1=O)N1CCN(c2cncc(F)c2)CC1` (stereo not drawn) [Example 487]: 190%. `CN(CCC1CC1)c1cnc2cnn(CC(=O)Nc3ccc4cncnc4c3)c2n1` [Example 647]: under setting [2], the “Nav1.1 current amplification rate (%)” value came to 165%. Consider `Cc1ccc(-c2cnc3cnn(CC(=O)N4CCN(c5ccncc5)CC4)c3n2)c(F)c1` [Example 743], for which, under setting [8], the activation at 50 µM came out at 39%. For `CC1CC=C(c2ccc(=O)n(CC(=O)Nc3ccn4c(C5CC5)cnc4c3)n2)CC1` (stereo not drawn) [Example 335], the “Nav1.1 current amplification rate (%)” value under setting [5] is 187%. On the same count and under the same terms, the same measure for `CC1CC=C(c2ccc(=O)n(CC(=O)N3CCOc4c(-c5cn[nH]c5)cccc43)n2)CC1` (stereo not drawn) [Example 290]: 94%; for `CC1CC=C(c2ccc(=O)n(CC(=O)N3CCc4c(C5CCNC5)cccc43)n2)CC1` (stereo not drawn) [Example 268]: 55%.

For `O=C(Cn1ncc2ncc(C3CCC3)nc21)Nc1ccn2ncnc2c1` [Example 576, 2-(6-Cyclobutyl-1H-pyrazolo[3,4-b]pyrazin-1-yl)-N-([1,2,4]triazolo[1,5-a]pyridin-7-yl)acetamide], under “HEK293, Concentration for evaluation 3 μM, HEK293 cell line stably expressing human Nav1.1, read-out: Nav1.1 current amplification rate (%)”, the activation at 3 µM came out at 14%.

Turning to `N#Cc1ccc(NC(=O)Cn2nc(N3CCC4(CCCCC4)C3)ccc2=O)cc1` [Example 31], the “Nav1.1 current amplification rate (%)” value under setting [1] is on record as 220%.

`CN(c1cnc2cnn(CC(=O)Nc3ccc4ncncc4c3)c2n1)C1CC1` [Example 728]: the “Nav1.1 current amplification rate (%)” value under setting [2] is on record as 71%.

Take `N#Cc1cnc(NC(=O)Cn2ncc3cnc(N4CCC5(CC5)C(F)(F)C4)nc32)cn1` [Example 828]: the “Nav1.1 current amplification rate (%)” value under setting [7] was found to be 108%. As for `CC(C1CC1)N(C)c1cnc2cnn(CC(=O)Nc3ccn4ncnc4c3)c2n1` (stereo not drawn) [Example 633], the “Nav1.1 current amplification rate (%)” value under setting [2] is listed as 15%. Regarding `Cc1ccc(N2CCN(C(=O)Cn3nc(C4=CCC(C)(C)CC4)ccc3=O)CC2)cn1` [Example 443], the “Nav1.1 current amplification rate (%)” value under setting [1] is 114%. For `CC1CC=C(c2ccc(=O)n(CC(=O)N3CCC(c4ccccc4)CC3)n2)CC1` (stereo not drawn) [Example 256], under setting [1], the “Nav1.1 current amplification rate (%)” value came to 36%.

With `CN(c1cnc2cnn(CC(=O)Nc3ccc4ccccc4n3)c2n1)C1CC1` [Example 717], the “Nav1.1 current amplification rate (%)” value under setting [5] is on record as 23%. Take `CC1CC=C(c2ccc3cnn(CC(=O)Nc4ccn5ncnc5c4)c3n2)CC1` (stereo not drawn) [Example 852]: the “Nav1.1 current amplification rate (%)” value under setting [7] amounted to 111%. Regarding `CC1CC=C(c2ccc(=O)n(CC(=O)N3CCc4c(C5CN(C6CCOC6)C5)cccc43)n2)CC1` (stereo not drawn) [Example 305], the “Nav1.1 current amplification rate (%)” value under setting [5] is given as 314%.
